Target: T1, Chronophin (Mus musculus, UniProt P60487)
T1 sequence (P60487 whole entry): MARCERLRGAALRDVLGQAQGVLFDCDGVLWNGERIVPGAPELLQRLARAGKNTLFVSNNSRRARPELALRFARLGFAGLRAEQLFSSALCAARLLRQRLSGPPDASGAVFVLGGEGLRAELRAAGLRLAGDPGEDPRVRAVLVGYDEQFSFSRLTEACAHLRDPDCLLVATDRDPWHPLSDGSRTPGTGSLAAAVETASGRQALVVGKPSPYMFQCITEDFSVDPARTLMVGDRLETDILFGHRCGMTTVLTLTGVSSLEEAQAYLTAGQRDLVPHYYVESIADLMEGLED
Assay: Inhibition of recombinant mouse brain PDXP expressed in Escherichia coli BL21 (DE3) cells assessed as pyridoxal 5' phosphate dephosphorylation preincubated for 4 mins followed by substrate addition measured after 5 mins

Structure (SMILES)	IC50 [µM]
Cc1ncc(CCP(=O)(O)O)c(CO)c1O	1300
Cc1ncc(/C=C/P(=O)(O)O)c(CO)c1O	1300
Cc1ncc(/C=C/P(=O)(O)O)c(C=O)c1O	246
Cc1ncc(CCP(=O)(O)O)c(C=O)c1O	79

From ChEMBL document CHEMBL3425448, “Synthesis of hydrolysis-resistant pyridoxal 5'-phosphate analogs and their biochemical and X-ray crystallographic characterization with the pyridoxal phosphatase chronophin” (Bioorg Med Chem, 2015)
